Here are results for ten compounds from ChEMBL document CHEMBL4765381, “Neuropeptide FF and Its Receptors: Therapeutic Applications and Ligand Development” (J Med Chem, 2020).

Assay [1] deals with T1, Neuropeptide FF receptor 2 (Homo sapiens, UniProt Q9Y5X5). Nature of the assay: Displacement of [125I]Tyr-NPFF from human NPFFR2 expressed in green monkey Cos-1 cells. The assay is classed as cell-based. In general terms: Displacement assays read how much labelled ligand stays bound in the presence of the test substance.
In assay [2] the target is T2, Neuropeptide FF receptor 1 (Homo sapiens, UniProt Q9GZQ6). Nature of the assay: Displacement of [125I]YVP from human NPFFR1 expressed in CHO cells. The format is cell-based.
The target in assay [3] is Mu-type opioid receptor (Homo sapiens) (UniProt P35372). Nature of the assay: Agonist activity at human mu-opioid receptor expressed in HEK293 cells assessed as inhibition of forskolin-induced cAMP accumulation preincubated for 15 mins followed by forskolin addition in presence of IBMX by Glo-sensor cAMP assay relative to control. The assay is classed as functional, cell-based. Conditions: filed as agonist.

Assay [4] concerns the target Delta-type opioid receptor (Homo sapiens) (UniProt P41143). Nature of the assay: Agonist activity at human delta-opioid receptor expressed in HEK293 cells assessed as inhibition of forskolin-induced cAMP accumulation preincubated for 15 mins followed by forskolin addition in presence of IBMX by Glo-sensor cAMP assay relative to control. Conditions: filed as agonist. The assay is classed as functional, cell-based. For orientation: Cyclic AMP is a second messenger, typically raised through Gs and lowered through Gi signalling.

The target of assay [5] is T2, Neuropeptide FF receptor 1. In words: Agonist activity at human NPFFR1 expressed in CHO cells by [35S]-GTP S binding assay relative to control. The format is cell-based.
The target in assay [6] is T1, Neuropeptide FF receptor 2. In words: Agonist activity at human NPFFR2 expressed in CHO cells by [35S]-GTP S binding assay relative to control. The format is cell-based.
The target of assay [7] is Kappa-type opioid receptor (Homo sapiens, UniProt P41145). In words: Agonist activity at human kappa opioid receptor expressed in HEK293 cells assessed as inhibition of forskolin-induced cAMP accumulation incubated for 15 mins followed by forskolin addition in presence of IBMX by Glo-sensor cAMP assay relative to control. The format is functional, cell-based.
The target in assay [8] is Neuropeptide FF receptor 2 (Rattus norvegicus) (UniProt Q9EQD2). Nature of the assay: Agonist activity at rat NPFFR2 by cell-based assay relative to control. Conditions: filed as agonist.
In assay [9] the target is T1, Neuropeptide FF receptor 2. The settings on record: COS-1, filed as antagonist, dose 7.5 µM, time 30.0 min.
For assay [10], the target named is T1, Neuropeptide FF receptor 2. In words: Displacement of [125I]EYF from human NPFFR2 expressed in CHO cells by gamma-counter method. The assay is classed as cell-based.
Assay [11] addresses T2, Neuropeptide FF receptor 1. In words: Displacement of [125I]YVP from human NPFFR1 expressed in HEK293 cells by radioligand binding assay. The format is cell-based.
The nature of assay [12]: Binding affinity to NPFFR in rat spinal cord. The format is tissue-based.
Assay [13] concerns the target T1, Neuropeptide FF receptor 2. Nature of the assay: Displacement of [125I]-1DMeNPFF from human NPFFR2 expressed in HEK293 cells incubated for 2 hrs by scintillation counting method. The format is cell-based.
Assay [14] in a line: Displacement of [125I]-1DMe from NPFF receptor in Sprague-Dawley rat dorsal horn of spinal cord incubated for 150 mins by autoradiography. The assay is classed as tissue-based.
In assay [15] the target is T1, Neuropeptide FF receptor 2. Nature of the assay: Displacement of [125I]NPFF from human NPFFR2 expressed in CHO cell membranes incubated for 120 mins by scintillation/luminescence counting method. Also noted: species or system Membrane.
For assay [16], the target named is T1, Neuropeptide FF receptor 2. In words: Antagonist activity at human NPFFR2 expressed in CHO-RD-HGA16 cells assessed as reduction in NPFF-induced calcium influx by measuring apparent dissociation constant Ke preincubated for 15 mins followed by NPFF addition by calcium-5 dye based fluorescence method. The assay is classed as functional, cell-based. The settings on record: CHO/Galpha16, filed as antagonist.

Assay [17] has as its target T2, Neuropeptide FF receptor 1. In words: Displacement of [125I]NPFF from human NPFFR1 expressed in CHO cell membranes incubated for 120 mins by scintillation/luminescence counting method. Also noted: species or system Membrane.
Assay [18] has as its target T2, Neuropeptide FF receptor 1. In words: Antagonist activity at human NPFFR1 expressed in CHO-K1 cells assessed as apparent dissociation constant Ke by Eu-cAMP tracer based TR-FRET assay. The format is functional, cell-based. Conditions: filed as antagonist. (In TR-FRET formats the signal depends on donor and acceptor labels being close together.)
The target in assay [19] is T2, Neuropeptide FF receptor 1. Nature of the assay: Antagonist activity at human NPFFR1 expressed in CHO-RD-HGA16 cells assessed as reduction in NPFF-induced calcium influx by measuring apparent dissociation constant Ke preincubated for 15 mins followed by NPFF addition by calcium-5 dye based fluorescence method. The assay is classed as functional, cell-based. Conditions: CHO/Galpha16, filed as antagonist.

The target of assay [20] is T1, Neuropeptide FF receptor 2. Nature of the assay: Antagonist activity at human NPFFR2 expressed in CHO-K1 cells assessed as apparent dissociation constant Ke by Eu-cAMP tracer based TR-FRET assay. The assay is classed as functional, cell-based. Conditions: filed as antagonist.
Assay [21] deals with Neuropeptide FF receptor 1 (Rattus norvegicus, UniProt Q9EP86). Nature of the assay: Displacement of [125I](Tyr)NPF from rat NPFFR1 expressed in rat PC12 cells incubated for 1 hr. The format is cell-based, PC-12.
Assay [22] addresses T1, Neuropeptide FF receptor 2. Nature of the assay: Agonist activity at human NPFFR2 expressed in CHO cells assessed as stimulation of [35S]-GTPgammaS binding preincubated for 30 mins followed by [35S]-GTPgammaS stimulation and measured after 30 mins by scintillation counting method. The assay is classed as functional, cell-based.

Numbered stars: 1 amine (or outer) side, 2 acyl side, 3 side chain; on linkers, the order of the positions; unused ones are H or OH. Square brackets hold non-standard residues; d marks the D form. Peptide text beside a SMILES is read from it. * marks the point of attachment. Nva(5-(4-Bn-piperidin-1-yl)) = N[C@@H](CCCN1CCC(Cc2ccccc2)CC1)C(=O)O; X1 = O=C1[C@@H](N[*:1])Cc2ccccc2CN1CCC(=O)[*:2]; Desaminotyrosyl = O=C(CCc1ccc(O)cc1)*; Dmt = Cc1cc(O)cc(C)c1C[C@H](N)C(=O)O; NMeF = CN[C@@H](Cc1ccccc1)C(=O)O; Tic = O=C(O)[C@@H]1Cc2ccccc2CN1

T2 sequence (Q9GZQ6 whole entry): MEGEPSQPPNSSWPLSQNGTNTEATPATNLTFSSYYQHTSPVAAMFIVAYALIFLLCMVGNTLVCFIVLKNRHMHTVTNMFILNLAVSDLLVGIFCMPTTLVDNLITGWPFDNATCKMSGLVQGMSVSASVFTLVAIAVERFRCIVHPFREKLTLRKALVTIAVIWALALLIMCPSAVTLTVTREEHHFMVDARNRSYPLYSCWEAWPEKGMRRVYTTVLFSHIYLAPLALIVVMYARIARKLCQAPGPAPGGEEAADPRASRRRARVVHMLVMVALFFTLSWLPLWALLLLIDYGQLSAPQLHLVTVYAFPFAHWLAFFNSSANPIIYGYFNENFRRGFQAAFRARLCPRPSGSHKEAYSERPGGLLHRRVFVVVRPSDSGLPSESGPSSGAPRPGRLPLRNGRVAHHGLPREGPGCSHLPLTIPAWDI
T1 sequence (Q9Y5X5 whole entry): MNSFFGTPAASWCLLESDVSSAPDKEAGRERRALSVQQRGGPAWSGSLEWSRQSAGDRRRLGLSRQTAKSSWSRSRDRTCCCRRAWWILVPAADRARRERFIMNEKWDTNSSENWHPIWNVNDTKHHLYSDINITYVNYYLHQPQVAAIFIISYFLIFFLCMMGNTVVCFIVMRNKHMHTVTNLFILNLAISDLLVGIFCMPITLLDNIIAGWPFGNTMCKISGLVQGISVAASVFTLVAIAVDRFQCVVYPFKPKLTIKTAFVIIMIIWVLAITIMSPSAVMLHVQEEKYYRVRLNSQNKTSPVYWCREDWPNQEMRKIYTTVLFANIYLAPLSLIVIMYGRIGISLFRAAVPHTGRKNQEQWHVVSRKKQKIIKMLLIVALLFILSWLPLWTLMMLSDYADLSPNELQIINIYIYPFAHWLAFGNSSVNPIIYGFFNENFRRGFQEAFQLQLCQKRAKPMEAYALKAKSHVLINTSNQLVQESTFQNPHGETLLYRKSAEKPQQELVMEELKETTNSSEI
Chain of Neuropeptide FF receptor 1 (Rattus norvegicus, UniProt Q9EP86) (Q9EP86 whole entry): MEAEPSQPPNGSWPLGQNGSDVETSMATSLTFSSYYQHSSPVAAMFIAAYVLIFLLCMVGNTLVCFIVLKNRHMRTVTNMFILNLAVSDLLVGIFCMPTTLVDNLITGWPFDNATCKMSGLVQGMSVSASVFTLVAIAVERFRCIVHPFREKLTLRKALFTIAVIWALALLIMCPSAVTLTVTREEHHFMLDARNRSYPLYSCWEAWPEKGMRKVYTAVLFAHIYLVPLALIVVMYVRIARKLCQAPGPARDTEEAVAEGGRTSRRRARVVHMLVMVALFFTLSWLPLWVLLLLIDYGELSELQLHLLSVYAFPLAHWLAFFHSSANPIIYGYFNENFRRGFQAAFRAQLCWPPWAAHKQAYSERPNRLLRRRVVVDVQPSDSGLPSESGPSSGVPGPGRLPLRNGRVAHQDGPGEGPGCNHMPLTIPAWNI
Chain of Neuropeptide FF receptor 2 (Rattus norvegicus) (Q9EQD2 whole entry): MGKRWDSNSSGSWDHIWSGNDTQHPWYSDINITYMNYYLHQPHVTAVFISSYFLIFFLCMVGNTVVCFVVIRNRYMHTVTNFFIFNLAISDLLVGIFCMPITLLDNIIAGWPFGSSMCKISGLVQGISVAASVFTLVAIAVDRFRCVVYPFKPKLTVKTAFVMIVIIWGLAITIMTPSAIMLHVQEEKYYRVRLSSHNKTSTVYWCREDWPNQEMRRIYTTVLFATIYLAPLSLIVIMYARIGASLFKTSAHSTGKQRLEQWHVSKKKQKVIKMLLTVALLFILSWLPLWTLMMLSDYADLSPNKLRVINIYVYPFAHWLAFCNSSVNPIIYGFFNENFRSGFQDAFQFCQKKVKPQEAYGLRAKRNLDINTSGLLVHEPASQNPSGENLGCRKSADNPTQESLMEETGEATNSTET
Chain of Mu-type opioid receptor (Homo sapiens) (P35372 whole entry): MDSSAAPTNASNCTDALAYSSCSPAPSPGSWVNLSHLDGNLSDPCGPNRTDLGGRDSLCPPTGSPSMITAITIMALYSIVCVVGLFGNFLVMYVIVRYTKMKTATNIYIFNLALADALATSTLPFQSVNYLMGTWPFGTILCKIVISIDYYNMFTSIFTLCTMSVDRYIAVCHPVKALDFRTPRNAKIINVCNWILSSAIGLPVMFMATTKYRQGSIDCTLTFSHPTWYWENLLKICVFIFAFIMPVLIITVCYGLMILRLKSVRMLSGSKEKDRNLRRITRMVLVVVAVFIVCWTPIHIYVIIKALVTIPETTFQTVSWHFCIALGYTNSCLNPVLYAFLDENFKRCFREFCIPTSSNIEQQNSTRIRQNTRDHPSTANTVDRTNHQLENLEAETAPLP
Chain of Delta-type opioid receptor (Homo sapiens) (P41143 whole entry): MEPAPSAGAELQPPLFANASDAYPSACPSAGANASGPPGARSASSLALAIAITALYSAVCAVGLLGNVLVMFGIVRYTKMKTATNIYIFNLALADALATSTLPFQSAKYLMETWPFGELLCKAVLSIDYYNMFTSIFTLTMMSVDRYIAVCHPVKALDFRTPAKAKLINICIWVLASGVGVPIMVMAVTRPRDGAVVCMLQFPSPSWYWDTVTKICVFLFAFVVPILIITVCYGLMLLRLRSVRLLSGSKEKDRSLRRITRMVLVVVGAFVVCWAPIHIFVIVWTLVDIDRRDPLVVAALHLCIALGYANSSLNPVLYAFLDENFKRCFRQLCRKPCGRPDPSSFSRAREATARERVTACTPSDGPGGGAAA
Chain of Kappa-type opioid receptor (P41145 whole entry): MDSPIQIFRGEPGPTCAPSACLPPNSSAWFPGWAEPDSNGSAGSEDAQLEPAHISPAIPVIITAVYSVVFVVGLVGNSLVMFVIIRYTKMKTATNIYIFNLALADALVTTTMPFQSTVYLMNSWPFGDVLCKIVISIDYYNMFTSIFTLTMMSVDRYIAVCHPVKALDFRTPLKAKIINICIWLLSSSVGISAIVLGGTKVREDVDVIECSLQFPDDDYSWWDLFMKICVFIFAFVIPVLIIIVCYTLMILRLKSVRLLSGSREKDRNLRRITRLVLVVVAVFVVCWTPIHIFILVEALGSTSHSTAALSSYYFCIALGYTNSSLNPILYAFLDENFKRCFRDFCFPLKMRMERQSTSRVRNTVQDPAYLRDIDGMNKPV

What is called Ki is the equilibrium dissociation constant of an inhibitor or competing ligand from its target. `NC(N)=NCCC[C@H](NC(=O)C(c1ccccc1)c1ccccc1)C(=O)NCc1ccc(O)cc1`: the Ki stood at 461 nM in assay [1] and 12 nM in assay [2].

Usually Emax stands for the maximal effect, on the per cent scale that the assay sets. With `Cc1cc(O)cc(C)c1C[C@H](N)C(=O)N[C@H](CCCNC(=N)N)C(=O)N[C@H]1Cc2ccccc2CN(CCC(=O)N[C@@H](CCCN2CCC(Cc3ccccc3)CC2)C(=O)N[C@@H](Cc2ccccc2)C(N)=O)C1=O` (H-[Dmt][dR][X1][Nva(5-(4-Bn-piperidin-1-yl))]F-NH2), the Emax worked out at 85% in assay [3]; 90% in assay [4]; 10% in [5]; 38% in assay [6]; 34% in [7].

The compound `Cc1cc(NC(=N)N)nc2ccc(Cl)cc12` had an Emax in assay [8] of 61%.

As for `N=C(N)NCCC[C@H](NC(=O)C12CC3CC(CC(C3)C1)C2)C(=O)N[C@@H](Cc1ccccc1)C(N)=O`, the Ke in assay [9] was determined as 45 nM.

`CC(C)C[C@H](NC(=O)[C@H](CC(N)=O)NC(=O)[C@@H]1CCCN1C(=O)[C@@H](N)C(C)C)C(=O)N1CCC[C@H]1C(=O)N[C@@H](CCC(N)=O)C(=O)N[C@@H](CCCNC(=N)N)C(=O)N[C@@H](Cc1ccccc1)C(N)=O` gave a Ki in [10] of 23 nM.

Turning to `CC(C)C[C@H](NC(=O)[C@H](N)Cc1ccc(O)cc1)C(=O)N(C)[C@@H](Cc1ccccc1)C(=O)N[C@@H](CCC(N)=O)C(=O)N1CCC[C@H]1C(=O)N[C@@H](CCC(N)=O)C(=O)N[C@@H](CCCN=C(N)N)C(=O)N[C@@H](Cc1ccccc1)C(N)=O` (H-[dY]L[NMeF]QPQRF-NH2), the Ki in [11] came to 2 nM; in assay [12] it was 0.07 nM; in [13], 3.2 nM.

`NC(=O)CC[C@H](NC(=O)[C@@H]1CCCN1)C(=O)N[C@@H](CCCN=C(N)N)C(=O)N[C@@H](Cc1ccccc1)C(N)=O` showed a Ki in [14] of 15.5 nM.

Take `CC(C)C[C@H](NC(=O)[C@H](Cc1ccccc1)NC(=O)CCc1ccc(O)cc1)C(=O)N[C@@H](Cc1ccccc1)C(=O)N[C@@H](CCC(N)=O)C(=O)N1CCC[C@H]1C(=O)N[C@@H](CCC(N)=O)C(=O)N[C@@H](CCCN=C(N)N)C(N)=O` (Desaminotyrosyl-FLFQPQR-NH2): the inhibition constant (Ki) in assay [12] came out at 0.2 nM.

On to `COc1ccc(CN[C@H]2C[C@@H](C(=O)OCCc3ccc([N+](=O)[O-])cc3)N(Cc3ccccc3Cl)C2)cc1`, for which the Ki amounted to 1670 nM in assay [15] and 610 nM in assay [17]. Also, the Ke in assay [16] is 0.69 µM; in assay [18] it was 0.49 µM; in [19], 0.25 µM; in assay [20] it was 1.17 µM.

For orientation: IC50 means the midpoint of a concentration-inhibition curve. A word on the EC50: it is the midpoint of the concentration-response curve. Turning to `N=C(N)NCCC[C@H](NC(=O)[C@H](Cc1ccccc1)NC(=O)[C@@H]1CCCN1)C(=O)N1Cc2ccccc2C[C@H]1C(N)=O` (H-PFR[Tic]-NH2), in assay [21], the IC50 was 0.1 nM and the inhibitory constant (Ki) was 101 nM. The EC50 in [22] was 2400 nM.
